Assay results reported in patent US20030100479A1, “Gene polymorphisms and response to treatment” (priority 2001, published 2003).
Entries after “also recorded” stand apart in the source; their conditions may differ.

How the values were obtained:
[1] = Clinical trial of GW320659: change in supine systolic blood pressure (time-adjusted AUC), by genotype; format: in vivo, human
Source text: Using genotyping methods as are well known in the art, genetic data were obtained from approximately 200 of more than 500 human subjects enrolled in a dose-ranging efficacy and safety study of GW320659 for weight loss (main study group; a randomized, double-blind, placebo controlled, dose-ranging clinical trial); GW320659 was used in conjunction with a mildly hypocaloric diet and brief weight management guidance. Subjects were between the ages of 18-65 years, with a Body Mass Index (BMI) of 30-40, and were not on any psychotropic medications or other anti-obesity medications. […]
(§1) Subjects were assessed for various parameters, including absolute change in body weight from week 0 to week 24 of the study; supine heart rate, diastolic blood pressure and systolic blood pressure at multiple predetermined time-points across the study; and change in Food Craving Inventory (Total) score from week 0 to week 24.
Analyses of changes in cardiovascular endpoints (HR, SBP, DBP, all measured in supine subjects) were conducted individually for each of the polymorphic sites, and analyzed as follows. Vital sign assessments at all post-baseline visits were analyzed utilizing a repeated measures (mixed) ANOVA model. Genotype by treatment interactions were assessed. […]

[2] = Clinical trial of GW320659: change in supine diastolic blood pressure (time-adjusted AUC), by genotype; format: in vivo, human
Source text: (§2) Using genotyping methods as are well known in the art, genetic data were obtained from approximately 200 of more than 500 human subjects enrolled in a dose-ranging efficacy and safety study of GW320659 for weight loss (main study group; a randomized, double-blind, placebo controlled, dose-ranging clinical trial); GW320659 was used in conjunction with a mildly hypocaloric diet and brief weight management guidance. Subjects were between the ages of 18-65 years, with a Body Mass Index (BMI) of 30-40, and were not on any psychotropic medications or other anti-obesity medications. Subjects were randomized into one of five treatment groups: placebo or GW320659 at 2.5 mg/day, 5 mg/day, 10 mg/day, or 15 mg/day (oral administration). In the main study group, for the GW320659 15 mg/day dosage, average weight loss was approximately 3.7 kg (108 subjects; data not shown).
as §1
(§3) Analyses of changes in cardiovascular endpoints (HR, SBP, DBP, all measured in supine subjects) were conducted individually for each of the polymorphic sites, and analyzed as follows. Vital sign assessments at all post-baseline visits were analyzed utilizing a repeated measures (mixed) ANOVA model. Genotype by treatment interactions were assessed. The following model was used.
(§4) If the treatment by time interaction was non-significant, the corresponding term was planned to be removed from the model, prior to assessing treatment by genotype interaction. Subsequently, this term was removed for all vital signs analyses. In addition, vital signs data was analyzed utilizing a time-weighted area under the curve (adjusted for baseline) analysis. Model #2 (used for the efficacy analyses) was employed for these analyses.
(§5) Supine heart rate (HR), supine systolic blood pressure (SBP) and supine diastolic blood pressure (DBP) were assessed at various fixed intervals across the duration of the study. Summaries and analyses were conducted on the “area under the curve” (AUC) values (adjusted for time on study and baseline). All reported p-values in this section refer to AUC analyses, using Model No.2 as described above.
Accordingly, for some recursive partioning analysis the treatment groups were split in this manner (15 mg versus all other groups). The p-value threshold was set 0.10 (the minimum level necessary to get further automatic splits). The software then determined the remaining splits for the 15 mg group. […]

[3] = Clinical trial of GW320659: change in supine heart rate (time-adjusted AUC), by genotype; format: in vivo, human; parameters: Change in Heart Rate, Mean / Heart Rate (mean time adusted change): unit not given here
Source text: as §2, §1, §3, §4
The multilocus genotypes from each individual were used to enumerate all possible haplotypes. These haplotypes were assigned starting frequencies. The haplotype frequencies were updated with frequencies calculated from all the possible haplotypes from each individual in the sample. This continued until the frequencies were constant from iteration to iteration.
Regression-based models were used to relate inferred haplotype probabilities for each individual with the continuous response.
as §5
As in Food Craving Inventory (Example 6, above), manual splits were created by treatment dose (placebo, 2.5+5 mg, and 10+15 mg). The p-value threshold was then set at 0.10 (the minimum level necessary to get further automatic splits). The software then determined the remaining splits for the 10+15 mg group. The splits found in the 10+15 mg group were then manually duplicated for the lower dose groups (for comparison purposes).

[4] = Clinical trial of GW320659: change in Food Craving Inventory (Total) score week 0 to week 24, by genotype; format: in vivo, human; conditions: for Change in Food Craving Inventory, mean response: 10 mg+15 mg; for Placebo adjusted mean change in Food Craving Inventory (Total) score: 15 mg dose group; for Mean change in Food Craving Inventory (Total) score: data not shown
Source text: as §2, §1
The endpoint of Change in Food Craving Inventory (total score) was analyzed with the same methods.
The Food Craving Inventory used was a validated scale developed at Louisiana State University. It is a scale of 37 items designed to measure food cravings for specific foods. For each item the subject is asked “Over the past month, how often have you experienced a craving for the food?”. Possible responses were Never, Rarely, Sometimes, Often, and Always. These responses were converted to ordinal scores (1, 2, 3, 4, 5). The mean total score was computed for each patient. Change from baseline mean scores were analyzed. Possible range for this measure was −4 to 4; a negative number indicates a decrease in cravings.
The change in Food Craving Inventory was assessed by grouping low dose treatments together (2.5+5 mg treatments) and higher dose treatments together (10 mg+15 mg), and comparing to placebo, using a p-value threshold set at […] (the minimum level necessary to get further automatic splits). The software then determined the remaining splits for the 10 mg+15 mg group. The splits found in the 10+15 mg group were then manually duplicated for the lower dose group (2.5+5 mg) for comparison purposes. As an example, for the 10 mg+15 mg treatment doses, the mean response for subjects with genotype 1, 2 or 2,2 for the NET1 C120A genetic marker and a baseline weight greater than 86.6 kg, was −0.55 (std=0.37 n=49). FIG. 11. For all subjects not in the defined subgroup, mean response was −0.02 (std=0.60, n=25).

norepinephrine uptake = conditions: Kelley et al., J. Med. Chem. 39:347 (1996); cited from earlier work
[5] = NET1 T342C (2,2) and without DRD2 C12121T (2,2), 10 mg/day or 15 mg/day
[6] = subgroup 2/2 NET1T342C and/or 2/2 NET1G155A and/or 2/2 NR1G6435A, 10 mg/day+15 mg/day, 26 subjects
[7] = subgroup 2,2 for NET1T342C and/or NET1G155A and/or NR1G6435A, 10 mg and 15 mg combined
[8] = subgroup 2,2 for NET1T342C and/or NET1G155A and/or NR1G6435A, 10 mg/day+15 mg/day, not significantly different from placebo

C[C@@H]1CO[C@@](O)(c2cc(F)cc(F)c2)[C@H](C)N1.Cl [GW320659, (2S,3S,5R)-2-(3,5-difluorophenyl)-3,5-dimethyl-2-morpholinol]
Changes in systolic blood pressure compared to subjects with alternate genotypes [1, 5]: decreased changes in heart rate and blood pressure; also recorded: comparatively small changes in HR, SBP and DBP | Systolic Blood Pressure (mean time adjusted change) [1, 6]: 0.9733 | Changes in diastolic blood pressure compared to subjects with alternate genotypes [2, 5]: decreased changes in heart rate and blood pressure; also recorded: comparatively small changes in HR, SBP and DBP | Mean rise in DBP [2, 7]: 2.4 mmHG | Overall mean time-adjusted change in Diastolic Blood Pressure, mean rise [2, 8]: 2.4 mm Hg | Diastolic Blood Pressure (mean time adjusted change) [2, 6]: 2.431 | Increase in heart rate compared to subjects with alternate genotypes ([3]; DRD2 C12121T (2′,2) and MAOBG644A (1,1) genotypes, 10 mg/day or 15 mg/day): larger increase in heart rate | Changes in heart rate compared to subjects with alternate genotypes [3, 5]: decreased changes in heart rate and blood pressure; also recorded: comparatively small changes in HR, SBP and DBP | Change in Heart Rate, Mean ([3]; haplotype 1,1 5HTTC867T 5HTTT3287C, All Ethnicities, 10 and 15 mg combined (Table 6)): 3.5075 | Change in Heart Rate, Mean ([3]; haplotype 1,1 5HTTC867T 5HTTT3287C, Caucasians, 10 and 15 mg combined (Table 7)): 3.811 | Change in Heart Rate, Mean ([3]; haplotype 1,1 5HTTDel-Ins 5HTTC867T, All Ethnicities, 10 and 15 mg combined (Table 6)): 4.2 | Change in Heart Rate, Mean ([3]; haplotype 1,1 5HTTDel-Ins 5HTTC867T, Caucasians, 10 and 15 mg combined (Table 7)): 4.077 | Change in Heart Rate, Mean ([3]; haplotype 1,1,1 5HTTDel-Ins 5HTTC867T 5HTT3287C, All Ethnicities, 10 and 15 mg combined (Table 6)): 5.48 | Change in Heart Rate, Mean ([3]; haplotype 1,1,1 5HTTDel-Ins 5HTTC867T 5HTT3287C, Caucasians, 10 and 15 mg combined (Table 7)): 5.69 | Change in Heart Rate, Mean ([3]; haplotype 1,1,2 5HTTDel-Ins 5HTTC867T 5HTT3287C, All Ethnicities, 10 and 15 mg combined (Table 6)): −0.6849 | Change in Heart Rate, Mean ([3]; haplotype 1,1,2 5HTTDel-Ins 5HTTC867T 5HTT3287C, Caucasians, 10 and 15 mg combined (Table 7)): −0.8345 | Change in Heart Rate, Mean ([3]; haplotype 1,2 5HTTC867T 5HTTT3287C, All Ethnicities, 10 and 15 mg combined (Table 6)): −0.6851 | Change in Heart Rate, Mean ([3]; haplotype 1,2 5HTTC867T 5HTTT3287C, Caucasians, 10 and 15 mg combined (Table 7)): −0.8347 | Change in Heart Rate, Mean ([3]; haplotype 1,2 5HTTDel-Ins 5HTTC867T, All Ethnicities, 10 and 15 mg combined (Table 6)): 6.424 | Change in Heart Rate, Mean ([3]; haplotype 1,2 5HTTDel-Ins 5HTTC867T, Caucasians, 10 and 15 mg combined (Table 7)): 6.807 | Change in Heart Rate, Mean ([3]; haplotype 1,2,1 5HTTDel-Ins 5HTTC867T 5HTT3287C, All Ethnicities, 10 and 15 mg combined (Table 6)): 6.404 | Change in Heart Rate, Mean ([3]; haplotype 1,2,1 5HTTDel-Ins 5HTTC867T 5HTT3287C, Caucasians, 10 and 15 mg combined (Table 7)): 6.808 | Change in Heart Rate, Mean ([3]; haplotype 2,1 5HTTC867T 5HTTT3287C, All Ethnicities, 10 and 15 mg combined (Table 6)): 5.565 | Change in Heart Rate, Mean ([3]; haplotype 2,1 5HTTC867T 5HTTT3287C, Caucasians, 10 and 15 mg combined (Table 7)): 5.827 | Change in Heart Rate, Mean ([3]; haplotype 2,1 5HTTDel-Ins 5HTTC867T, All Ethnicities, 10 and 15 mg combined (Table 6)): 2.183 | Change in Heart Rate, Mean ([3]; haplotype 2,1 5HTTDel-Ins 5HTTC867T, Caucasians, 10 and 15 mg combined (Table 7)): 3.034 | Change in Heart Rate, Mean ([3]; haplotype 2,1,1 5HTTDel-Ins 5HTTC867T 5HTT3287C, All Ethnicities, 10 and 15 mg combined (Table 6)): 2.256 | Change in Heart Rate, Mean ([3]; haplotype 2,1,1 5HTTDel-Ins 5HTTC867T 5HTT3287C, Caucasians, 10 and 15 mg combined (Table 7)): 3.11 | Change in Heart Rate, Mean ([3]; haplotype 2,2 5HTTDel-Ins 5HTTC867T, All Ethnicities, 10 and 15 mg combined (Table 6)): 4.879 | Change in Heart Rate, Mean ([3]; haplotype 2,2 5HTTDel-Ins 5HTTC867T, Caucasians, 10 and 15 mg combined (Table 7)): 5.085 | Change in Heart Rate, Mean ([3]; haplotype 2,2,1 5HTTDel-Ins 5HTTC867T 5HTT3287C, All Ethnicities, 10 and 15 mg combined (Table 6)): 4.782 | Change in Heart Rate, Mean ([3]; haplotype 2,2,1 5HTTDel-Ins 5HTTC867T 5HTT3287C, Caucasians, 10 and 15 mg combined (Table 7)): 4.92 | Mean rise in HR [3, 7]: 4.7 bpm | Overall mean time-adjusted change in Heart Rate, mean rise [3, 8]: 4.7 beats per minute | Heart Rate (mean time adusted change) [3, 6]: 4.666 | Mean change in HR ([3]; subgroup DRD2 C12121T (1,1) and MAOB G644A (1,1), 10 mg and 15 mg dosing): 13 bpm | Overall mean time-adjusted change in Heart Rate, mean increase ([3]; subgroup DRD2C12121T=2,2 and MAOBG644A=1,1, 10 mg/day+15 mg/day): 13 beats per minute | Change in Food Craving Inventory, mean response ([4]; NET1 C120A genotype 1,2 or 2,2 and baseline weight greater than 86.6 kg, std=0.37 n=49): −0.55 | Change in Food Craving Inventory, mean response ([4]; all subjects not in the defined subgroup, std=0.60, n=25): −0.02 | Placebo adjusted mean change in Food Craving Inventory (Total) score ([4]; 5HTT G160A 2,2 genotype, scale range −4 to 4): 0.7 | Mean change in Food Craving Inventory (Total) score ([4]; DRD2 C12121T 1,1 genotype, 15 mg dose): −0.7 | Mean change in Food Craving Inventory (Total) score ([4]; DRD2 C20236T 2,2 genotype, 15 mg dose): −0.7 | Placebo adjusted mean change in Food Craving Inventory (Total) score ([4]; NET1 C120A genotype 1,1): 0.2 | Placebo adjusted mean change in Food Craving Inventory (Total) score ([4]; NET1 C120A genotype 1,2): −0.4 | Placebo adjusted mean change in Food Craving Inventory (Total) score ([4]; NET1 C120A genotype 2,2): −0.4 | Mean change in Food Craving Inventory (Total) score ([4]; NET1 T342C 2,2 genotype, 10 mg dose): −0.7 | Mean change in Food Craving Inventory (Total) [4, 6]: −0.528 | Inhibition of norepinephrine uptake (norepinephrine uptake): potent, selective inhibitor of norepinephrine uptake
